Data reported in US6541477B2, “Inhibitors of p38-a kinase” (Scios, Inc., priority 1999, dated 2003).

How the values were obtained:
p38-α kinase [1] = target: T1, p38-α kinase (Homo sapiens, UniProt Q16539); test: biochemical; conditions: for inhibition at 15 µM: read-out: % Inhibition of p38α kinase at 15 μM; for inhibition at 0.2 µM: read-out: percent inhibition of p38α at 200 nM
[2] = Molar refraction (MR) of the ortho substituent as a measure of its size; assay type: physicochemical; conditions: as described by Hansch, J Med Chem 1973
Procedure: The molar refraction values for the ortho derivatives containing chloro, bromo and methoxy substituents were determined as a measure of the size of the substituent as described by Hansch, C. et al., J Med Chem (1973) 16:1207-1216. A linear correlation between the MR values and percent inhibition of p38α at 200 nM concentrations of the compounds was obtained. […] Thus, it appears that the ability to inhibit p38α kinase is dependent on the size of the ortho substituent. While not intending to be bound by any theory, applicants believe that the bulkier substituents rotate the aroyl moiety out of the plane of the piperidine or piperazine ring.

p38-α kinase [3] = target: T1, p38-α kinase; conditions: 15 μM compound

T1 sequence (Q16539 whole entry): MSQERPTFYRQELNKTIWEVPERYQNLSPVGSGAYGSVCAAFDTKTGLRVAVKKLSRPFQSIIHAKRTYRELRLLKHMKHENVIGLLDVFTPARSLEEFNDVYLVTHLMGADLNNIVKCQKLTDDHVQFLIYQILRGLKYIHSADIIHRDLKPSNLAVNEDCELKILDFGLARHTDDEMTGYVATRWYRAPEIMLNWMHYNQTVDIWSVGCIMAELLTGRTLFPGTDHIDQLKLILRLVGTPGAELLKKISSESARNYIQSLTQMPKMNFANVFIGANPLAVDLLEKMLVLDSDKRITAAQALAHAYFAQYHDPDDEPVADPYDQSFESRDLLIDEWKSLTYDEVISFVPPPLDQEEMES

Compound | % Inhibition of p38α kinase at 15 μM (p38-α kinase [3]) | other results
COc1ccc(C(=O)N2CCC(Cc3ccccc3)CC2)cc1 [compound 2, 1-(4-methoxybenzoyl)-4-benzyl piperidine] |  | IC50 (p38-α kinase [1]): 605 nM
COc1cccc(C(=O)N2CCC(Cc3ccccc3)CC2)c1 [compound 5, 1-(3-methoxybenzoyl)-4-benzyl piperidine] |  | IC50 (p38-α kinase [1]): 1100 nM
O=C(c1ccccc1Cl)N1CCC(Cc2ccccc2)CC1 [compound 7, 1-(2-chlorobenzoyl)-4-benzyl piperidine] |  | MR value (molar refraction) [2]: about 6; inhibition at 15 µM (p38-α kinase [1]): 99%; inhibition at 0.2 µM (p38-α kinase [1]): 52%
O=C(c1ccccc1Br)N1CCC(Cc2ccccc2)CC1 [compound 8, 1-(2-bromobenzoyl)-4-benzyl piperidine] |  | MR value (molar refraction) [2]: approximately 9; inhibition at 15 µM (p38-α kinase [1]): 99%; inhibition at 0.2 µM (p38-α kinase [1]): 72%
COc1ccccc1C(=O)N1CCC(Cc2ccccc2)CC1 [compound 10, 1-(2-methoxybenzoyl)-4-benzyl piperidine] |  | MR value (molar refraction) [2]: about 8
Cc1ccccc1C(=O)N1CCC(Cc2ccccc2)CC1 [compound 11, 1-(2-methylbenzoyl)-4-benzyl piperidine] |  | inhibition at 15 µM (p38-α kinase [1]): 98%
O=C(c1cccc(Br)c1)N1CCC(Cc2ccccc2)CC1 [meta-Br] | 74% | 
O=C(c1cccc(C(F)(F)F)c1)N1CCC(Cc2ccccc2)CC1 [meta-CF3] | 49% | 
O=C(c1cccc(Cl)c1)N1CCC(Cc2ccccc2)CC1 [meta-Cl] | 80% | 
O=C(c1cccc(F)c1)N1CCC(Cc2ccccc2)CC1 [meta-F] | 92% | 
Cc1cccc(C(=O)N2CCC(Cc3ccccc3)CC2)c1 [meta-methyl] | 90% | 
O=C(c1ccccc1C(F)(F)F)N1CCC(Cc2ccccc2)CC1 [ortho-CF3] | 98% | 
O=C(c1ccccc1F)N1CCC(Cc2ccccc2)CC1 [ortho-F] | 98% | 
O=C(c1ccc(Br)cc1)N1CCC(Cc2ccccc2)CC1 [para-Br] | 96% | 
O=C(c1ccc(C(F)(F)F)cc1)N1CCC(Cc2ccccc2)CC1 [para-CF3] | 66% | 
O=C(c1ccc(Cl)cc1)N1CCC(Cc2ccccc2)CC1 [para-Cl] | 85% | 
O=C(c1ccc(F)cc1)N1CCC(Cc2ccccc2)CC1 [para-F] | 94% | 
Cc1ccc(C(=O)N2CCC(Cc3ccccc3)CC2)cc1 [para-methyl] | 97% | 
